US20100197614A1, “TREATMENT OF URINARY TRACT INFECTIONS WITH A MIXTURE OF SAPONIN AND AN ANTIBIOTIC” (priority 2007, published 2010)

How the values were obtained:
[1] = tested on: wild-type E Coli bacteria isolated from UTI patients; assay: Growth (absorption at 600 nm) and CFU survival of E Coli directly exposed to gentamicin in LB; type: cell-based, Escherichia coli
Protocol: Furthermore, a sample of each bacteria solution at each different gentamicin concentration was transferred to an agar plate in order to test if the bacteria could give any surviving colony forming units (CFU) on an agar plate. The agar plate incubated overnight at 37° C.
FIG. 3, lower panel, no E Coli bacteria could survive being exposed for 2 hours to concentrations of gentamicin higher than approximately 3.1 μg/ml.
Seven different wild-type E Coli bacteria were isolated from UTI patients and were cultured in Luria Broth (LB) medium under static conditions for 2 days. The method for culturing bacteria is familiar for any skilled person in this field of microbiology. The 2 days old bacteria were diluted 100 fold in fresh sterile LB and added different concentrations of gentamicin or no gentamicin (control). Gentamicin was used as representative antibiotic agent. The bacteria were then allowed to re-grow for 2 hours under optimal growth conditions (shaking and at 37° C.) before the actual concentrations of bacteria cell in the LB were measured by determination of the absorption at 600 nm. The absorption of light reflects the number of bacteria. The number of bacteria was expressed relatively to the control preparation without gentamicin. […] Furthermore, a sample of each bacteria solution at each different gentamicin concentration was transferred to an agar plate in order to test if the bacteria survived and could cause formation of colony forming units (CFU) on an agar plate. The agar plate incubated overnight at 37° C.

[2] = tested on: E Coli taken up by human urinary bladder cells (HTB-9); assay: Infection of human bladder cells (HTB-9) with E Coli; surviving intracellular bacteria counted as CFU after gentamicin exposure; type: cell-based, Escherichia coli; details: HTB-9 infected 1 or 2 hours, then 100.0 μg/ml gentamicin for 2 hours
Protocol: Human bladder cells were cultured and thereafter infected with bacteria. In brief, human urinary bladder cells (HTB-9 from American tissue culture collection) were cultured in culture medium and CO2 incubator at 37° C. until the actual experiment took place. Culturing of human cells is familiar for any skilled person in this field of biology. Next, different concentrations of E Coli were added to the human bladder cells. The bladder cells and the bacteria were allowed to incubate for 1 or 2 hours together before most of the loosely bound and extracellular E Coli cells were removed by washing the bladder cells with PBS (the human bladder cells are attached to the bottom of the cell culture flask). The human bladder cells were exposed to 100.0 μg/ml gentamicin for 2 hours. Gentamicin cannot pass any membrane under normal conditions. As already shown in example 1, this gentamicin treatment kills all bacteria if the gentamicin can get access to the bacteria. Residual gentamicin and dead bacteria were removed again by washing the bladder cells with PBS. A final concentration of 0.1% triton x-100 in phosphate buffered saline was added to destroy all membrane structures of the human cells. […] The degree of expression of bacterial type 1 pili was correlated with the degree of bladder infection as measured by the method explained in example 2. […]

For gentamicin, the “survival of test bacteria on direct exposure” value ([1]; 100.0 μg/ml gentamicin, 2 hours) was “could not survive”, the “number of bacteria relative to control without gentamicin (absorption at 600 nm)” value ([1]; 2 hours re-growth with different concentrations of gentamicin) was “reduced at very low concentrations of gentamicin” and the “gentamicin concentration above which no E Coli bacteria could survive (CFU on agar plate)” value ([1]; exposed for 2 hours, LB, 37° C., agar plate overnight) was “approximately 3.1 μg/ml”. For the same substance, the “survival of bacteria taken up by bladder cells after antibiotic treatment (CFU)” value [2] was “able to survive the antibiotic treatment”.
